In the NIST ThermoML archive (doi:10.1021/je900342a):
± gives the expanded uncertainty stated by the source.

Assays:
[1] = Crystal; DTA
[2] = Molar enthalpy of transition or fusion; details: Crystal; DSC

Normal melting temperature [1] [°C] | Molar enthalpy of transition or fusion [2] [kcal/mol] | Compound
74.5 ± 0.5 |  | CC(C)Cc1ccc(C(C)C(=O)O)cc1 (stereo not given) [ibuprofen]
53.1 ± 0.5 | 10.9 ± 0.287 | CCCCCCCCCCCCCC(=O)O [tetradecanoic acid]
67.4 ± 0.5 | 38.9 ± 1 | CCCCCCCCCCCCCCCC(=O)OCC(COC(=O)CCCCCCCCCCCCCCC)OC(=O)CCCCCCCCCCCCCCC [1,2,3-propanetriyl tri(hexadecanoate)]
